For 18 molecules, TGI and GI50 results are on record in PubChem BioAssay (NCI).

Values joined by “and” are separate entries in the source; they are usually repeats but may differ in a detail not shown here. Equal entries are not always repeated.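 Grown in 96-well plates, cells were treated for 48 hours with each compound at five concentrations. Insufficient inhibition: endpoint recorded as highest concentration tested. GI50 is the concentration that inhibits growth by half. At the TGI there is no net growth.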

Some test systems named below: SR leukemia; NCI-H522 lung; HS 578T breast; TK-10 renal; K-562 leukemia; CAKI-1 renal; SN12C renal; MCF7 breast; A549 NSCLC; IGROV1 ovarian; OVCAR-8 ovarian; BT-549 breast.
Common to all, as to assay: NCI-60 cell line screen, 48 h

Turning to `O=C(O)c1ccc(S(=O)(=O)c2ccccc2[N+](=O)[O-])cc1`, the TGI with SR leukemia, in the assay on NCI-H522 lung, in the assay on HS 578T breast, in the assay with TK-10 renal, with K-562 leukemia and in the assay on CAKI-1 renal was greater than 10 µM each time. The TGI with SN12C renal, in the assay with MCF7 breast, in the assay on A549 NSCLC, in the assay with IGROV1 ovarian, in the assay with OVCAR-8 ovarian and in the assay on BT-549 breast was greater than 10 µM each time.
Take `O=c1c2ncn(COCCCl)c2n(-c2ccccc2)c(=S)n1-c1ccccc1`: the TGI with SR leukemia, in the assay with NCI-H522 lung, in the assay on HS 578T breast, in the assay with TK-10 renal, in the assay with K-562 leukemia and in the assay with CAKI-1 renal was greater than 100 µM in each case. Besides, the TGI in the assay with SN12C renal, in the assay with MCF7 breast, in the assay on A549 NSCLC, in the assay with IGROV1 ovarian, with OVCAR-8 ovarian and with BT-549 breast was greater than 100 µM throughout.
On to `Cc1ccn2c(=O)cc(-c3ccccc3)nc2c1`, for which the TGI with SR leukemia, in the assay with NCI-H522 lung, in the assay with HS 578T breast, with TK-10 renal, with K-562 leukemia and in the assay on SN12C renal was greater than 100 µM in each case. In addition, the TGI in the assay on MCF7 breast, in the assay on A549 NSCLC, with IGROV1 ovarian, in the assay with OVCAR-8 ovarian and in the assay with BT-549 breast was greater than 100 µM throughout.
Turning to `Cc1ccc(/C(O)=C/C(=O)C(=O)/C=C(\O)c2ccc(C)cc2C)c(C)c1`, the TGI was determined as 4.8 µM in the assay with SR leukemia; 4.53 µM in the assay on NCI-H522 lung; 5.15 µM in the assay on HS 578T breast; 3.45 µM in the assay on TK-10 renal; 9.58 µM in the assay on K-562 leukemia; 3.69 µM in the assay with CAKI-1 renal. Moreover, the TGI in the assay with SN12C renal is 4.88 µM; in the assay with MCF7 breast, 4.33 µM; in the assay on A549 NSCLC it was 4.16 µM; in the assay on IGROV1 ovarian, 4.42 µM; with OVCAR-8 ovarian, 7.63 µM; in the assay with BT-549 breast, 3.23 µM.
As to `CCn1nc2c3c(ncn3C(C)(C)O2)c1=O`, the TGI in the assay with SR leukemia, with NCI-H522 lung, with HS 578T breast, with TK-10 renal, in the assay on K-562 leukemia and in the assay with CAKI-1 renal was greater than 100 µM in each case. Further, the TGI with SN12C renal, in the assay with MCF7 breast, with A549 NSCLC, in the assay on IGROV1 ovarian and in the assay with BT-549 breast was greater than 100 µM each time.
In the case of `COc1cc(CNc2ccc(SC)cc2)cc(OC)c1OC`, the GI50 was 4.17 µM and 1.63 µM in the assay with SR leukemia; 41 µM and 16.7 µM in the assay with TK-10 renal; 3.99 µM and 1.49 µM in the assay on K-562 leukemia; 22.5 µM and 11.1 µM in the assay on CAKI-1 renal; 19.3 µM and 9.07 µM in the assay with SN12C renal; 17.2 µM and 7.73 µM with IGROV1 ovarian. Besides, the GI50 in the assay with OVCAR-8 ovarian was 27.1 µM and 7.69 µM; in the assay with BT-549 breast, 9.13 µM. The TGI with SR leukemia was greater than 100 µM; in the assay with NCI-H522 lung, 29.3 µM and 11 µM; with HS 578T breast it was greater than 77.7 µM; in the assay on TK-10 renal it was > 93.3 µM and 77.5 µM; in the assay with K-562 leukemia it was 44.9 µM and > 63.6 µM; in the assay with CAKI-1 renal, greater than 97.1 µM. Also, the TGI in the assay on SN12C renal is greater than 100 µM; with MCF7 breast, greater than 100 µM; with A549 NSCLC, greater than 100 µM; in the assay on IGROV1 ovarian, > 82.1 µM and 71.6 µM; in the assay with OVCAR-8 ovarian, > 92.6 µM and 56 µM; with BT-549 breast it was greater than 100 µM.
As to `CN(O)C(=O)c1cccc(Cl)c1`, the TGI in the assay on SR leukemia, with NCI-H522 lung, in the assay on HS 578T breast, in the assay with TK-10 renal, in the assay with K-562 leukemia and in the assay with CAKI-1 renal was greater than 100 µM in each case. In addition, the TGI with SN12C renal, in the assay with MCF7 breast, with A549 NSCLC, in the assay on IGROV1 ovarian, in the assay on OVCAR-8 ovarian and in the assay with BT-549 breast was greater than 100 µM throughout.
As to `C=CCCC(=O)CC(O)(C(F)(F)F)C(F)(F)F`, the TGI in the assay with SR leukemia, in the assay with NCI-H522 lung, with HS 578T breast, in the assay with TK-10 renal, in the assay with K-562 leukemia and in the assay with CAKI-1 renal was greater than 100 µM throughout. Also, the TGI in the assay with MCF7 breast, with A549 NSCLC, in the assay on IGROV1 ovarian, with OVCAR-8 ovarian and in the assay on BT-549 breast was greater than 100 µM in each case.
Consider `Nc1ccc(N=Nc2ccccc2)cc1`, for which the TGI in the assay with SR leukemia, in the assay on HS 578T breast, in the assay on TK-10 renal, in the assay on K-562 leukemia, in the assay on CAKI-1 renal and in the assay with SN12C renal was greater than 100 µM throughout. The TGI in the assay on MCF7 breast, in the assay with A549 NSCLC, in the assay with IGROV1 ovarian, in the assay with OVCAR-8 ovarian and in the assay on BT-549 breast was greater than 100 µM each time.
Take `CCCSc1ccc2[nH]c(/N=C/c3ccco3)cc2c1`: the TGI with SR leukemia was 35.7 µM; in the assay with NCI-H522 lung, 78.2 µM; in the assay with HS 578T breast it was greater than 100 µM; in the assay on CAKI-1 renal, greater than 100 µM; in the assay with SN12C renal, greater than 100 µM; in the assay on MCF7 breast it was greater than 100 µM. In addition, the TGI with A549 NSCLC, with IGROV1 ovarian, in the assay with OVCAR-8 ovarian and in the assay with BT-549 breast was greater than 100 µM each time.
Take `CC1(CF)SCc2nc3ccccc3n21` (centres undefined): the TGI with SR leukemia, in the assay with NCI-H522 lung, in the assay on HS 578T breast, in the assay on TK-10 renal, in the assay on CAKI-1 renal and with SN12C renal was greater than 100 µM each time. In addition, the TGI with MCF7 breast, in the assay on A549 NSCLC, with IGROV1 ovarian, with OVCAR-8 ovarian and in the assay on BT-549 breast was greater than 100 µM each time.
On to `CC1Cn2c(nc3ccccc32)NC1=O` (centres undefined), for which the TGI in the assay with SR leukemia, in the assay on NCI-H522 lung, with HS 578T breast, with TK-10 renal, with K-562 leukemia and in the assay on CAKI-1 renal was greater than 100 µM throughout. For the same molecule, the TGI in the assay with MCF7 breast, in the assay on A549 NSCLC, in the assay with IGROV1 ovarian, with OVCAR-8 ovarian and in the assay on BT-549 breast was greater than 100 µM throughout.
Regarding `Nc1cccc(Nc2nc3ccccc3nc2NS(=O)(=O)c2ccccc2)c1`, the TGI with SR leukemia was 57.8 µM; with HS 578T breast, greater than 100 µM; in the assay with TK-10 renal it was greater than 100 µM; in the assay on K-562 leukemia it was 76.3 µM; with CAKI-1 renal it was 80.3 µM; in the assay with SN12C renal it was greater than 100 µM. In addition, the TGI in the assay on MCF7 breast is greater than 100 µM; with A549 NSCLC it was greater than 100 µM; in the assay with IGROV1 ovarian, 86.9 µM; in the assay with OVCAR-8 ovarian it was greater than 100 µM; in the assay on BT-549 breast it was 44.9 µM.
On to `CN(NC(=O)c1cccs1)C1=NCCCN1`, for which the TGI in the assay on SR leukemia, in the assay with NCI-H522 lung, with HS 578T breast, in the assay with TK-10 renal, with K-562 leukemia and in the assay on MCF7 breast was greater than 100 µM each time. For the same molecule, the TGI in the assay on A549 NSCLC, in the assay with IGROV1 ovarian, with OVCAR-8 ovarian and in the assay on BT-549 breast was greater than 100 µM in each case.
Consider `O=C(OCC1OC2OC(c3ccccc3)(n3ccc4c([N+](=O)[O-])ccnc43)OC2C1OC(=O)c1ccccc1)c1ccccc1` (centres undefined), for which the TGI in the assay on SR leukemia, with HS 578T breast, in the assay with TK-10 renal, in the assay on K-562 leukemia, with CAKI-1 renal and with SN12C renal was greater than 100 µM in each case. Also, the TGI with MCF7 breast, with A549 NSCLC, in the assay on IGROV1 ovarian, in the assay on OVCAR-8 ovarian and in the assay on BT-549 breast was greater than 100 µM in each case.
Regarding `C[C@H](N)C(=O)Nc1ccc(-c2nc3ccccc3s2)cc1`, the TGI in the assay with SR leukemia is 31.2 µM; with NCI-H522 lung, 48 µM; in the assay on HS 578T breast it was greater than 100 µM; in the assay on TK-10 renal it was 60.8 µM; with K-562 leukemia, 37.6 µM; with CAKI-1 renal, 36.3 µM. For the same molecule, the TGI with SN12C renal was 56 µM; in the assay on A549 NSCLC it was 29.6 µM; in the assay on IGROV1 ovarian, 40.4 µM; in the assay with OVCAR-8 ovarian, 66.8 µM; in the assay with BT-549 breast, greater than 100 µM.
Consider `Cc1ccc(S(=O)(=O)OCC(=O)O)cc1`, for which the TGI in the assay on SR leukemia, in the assay with NCI-H522 lung, in the assay on HS 578T breast, in the assay on TK-10 renal, in the assay with K-562 leukemia and with CAKI-1 renal was greater than 100 µM in each case. The TGI in the assay on SN12C renal, in the assay with A549 NSCLC, with IGROV1 ovarian, in the assay on OVCAR-8 ovarian and in the assay on BT-549 breast was greater than 100 µM in each case.
Take `CC1CCOc2ccc(cc2)C=Nc2ccc(cc2)CCc2ccc(cc2)N=Cc2ccc(cc2)OCC1` (centres undefined): the TGI in the assay on SR leukemia, in the assay with NCI-H522 lung, in the assay on HS 578T breast, in the assay on K-562 leukemia, in the assay with CAKI-1 renal and with SN12C renal was greater than 100 µM in each case. In addition, the TGI with MCF7 breast, in the assay on A549 NSCLC, in the assay on IGROV1 ovarian, with OVCAR-8 ovarian and in the assay with BT-549 breast was greater than 100 µM throughout.
